Test results taken from patent US9730944B2, “Antiviral activity of novel bicyclic heterocycles” (priority 2010, dated 2017).
Values after ≈ are worked out from the molar mass of the structure shown. Where two headings read alike, the source gives them in different places.

Legend:
poliovirus (PV type 3) = experiment: microbe, parasite or virus in culture; assay type: cell-based; settings: Enterovirus C, read-out: PV-3 EC50
in vitro [1] = settings: human, PV CC50
in vitro [2] = settings: African green monkey, PV CC50
HIV-1 strain IIIB = experiment: Inhibition of replication of HIV-1 (IIIB strain) in MT-4 cells, MTT assay; assay type: cell-based; settings: Human immunodeficiency virus 1, IIIB, MT4, 120 h; MT-4 cells, MTT assay, five days after infection, 50% protection from cytopathic effect; read-out: EC50 (μM) HIV-1 (IIIB)
poliovirus (PV type 1) = experiment: microbe, parasite or virus in culture; assay type: cell-based; settings: Enterovirus C, read-out: PV-1 EC50
in vitro [3] = settings: human
poliovirus (PV type 2) = experiment: microbe, parasite or virus in culture; assay type: cell-based; settings: Enterovirus C, read-out: PV-2 EC50
HIV-2 strain (ROD) = experiment: Inhibition of replication of HIV-2 (ROD strain) in MT-4 cells, MTT assay; assay type: cell-based; settings: Human immunodeficiency virus 2, MT4, 120 h; MT-4 cells, MTT assay, five days after infection, 50% protection from cytopathic effect; read-out: EC50 (μM) HIV-2 (ROD)
[4] = Cytotoxicity in HCV-1a replicon cells, Promega CellTiter-Glo cell viability assay
[5] = tested on: genotype 1a H-77 replicon; experiment: HCV-1a replicon potency in RLuc-1 cells, bioluminescence; assay type: cell-based; settings: for HCV-1a Replicon Selectivity Index: CC50/EC50, genotype 1a replicon; for EC50: Hepatitis C virus, 72 h, read-out: HCV-1a Replicon EC50 (μM)

Row | SMILES | EC50 (poliovirus (PV type 3); HeLa) | EC50 (poliovirus (PV type 3); Vero) | CC50 (in vitro [1]) | CC50 (in vitro [2]) | EC50 (HIV-1 strain IIIB) | EC50 (poliovirus (PV type 1); HeLa) | EC50 (poliovirus (PV type 1); Vero) | CC50 (in vitro [3]) | EC50 (poliovirus (PV type 2); HeLa) | EC50 (poliovirus (PV type 2); Vero) | EC50 (HIV-2 strain (ROD)) | CC50 at 72 h [4] | HCV-1a Replicon Selectivity Index [5] | EC50 [5]
1 | NC(=O)Cc1nc(N2CCN(C(=O)COc3ccc(Cl)cc3)CC2)c2cc(-c3ccc(F)cc3)sc2n1 [Example 358, 2-(4-(4-(2-(4-chlorophenoxy)acetyl)piperazin-1-yl)-6-(4-fluorophenyl)thieno[2,3-d]pyrimidin-2-yl)acetamide] | > 50 µg/mL | > 50 µg/mL | > 50 µg/mL | > 150 µg/mL | > 19.1 µM | > 50 µg/mL | > 50 µg/mL | > 19.1 µM | ≥ 50 µg/mL | > 50 µg/mL | > 19.1 µM |  |  | 
2 | Cc1nc(N2CCN(C(=O)COc3ccc(Cl)cc3)CC2)c2nc(Cc3ccc(F)cc3)oc2n1 [Example 171, 2-(4-chlorophenoxy)-1-(4-(2-(4-fluorobenzyl)-5-methyloxazolo[5,4-d]pyrimidin-7-yl)piperazin-1-yl)ethanone] | > 50 µg/mL | > 50 µg/mL | 46.1 µg/mL (≈ 93 µM) | 118 µg/mL (≈ 238 µM) | > 29.6 µM | > 50 µg/mL | > 50 µg/mL | 33 µM | ≥ 50 µg/mL | 0.07 µg/mL (≈ 0.141 µM) | > 33 µM |  |  | 
3 | Cc1cccc(OCC(=O)N2CCN(c3nc(N)nc4sc(CCc5ccc(F)cc5)nc34)CC2)c1 [Example 53, 1-(4-(5-amino-2-(4-fluorophenethyl)thiazolo[5,4-d]pyrimidin-7-yl)piperazin-1-yl)-2-(m-tolyloxy)ethanone] | > 16.7 µg/mL | 1.4 µg/mL (≈ 2.76 µM) | > 50 µg/mL | > 150 µg/mL | > 7.96 µM | 0.41 µg/mL (≈ 0.809 µM) | 0.12 µg/mL (≈ 0.237 µM) | 201 µM | 9.73 µg/mL (≈ 19.2 µM) | 0.14 µg/mL (≈ 0.276 µM) | > 7.96 µM |  |  | 
4 | Nc1nc(N2CCN(C(=O)CCOc3ccc(F)cc3)CC2)c2nc(CCc3ccc(F)cc3)sc2n1 [Example 55, 1-(4-(5-amino-2-(4-fluorophenethyl)thiazolo[5,4-d]pyrimidin-7-yl)piperazin-1-yl)-3-(4-fluorophenoxy)propan-1-one] | > 50 µg/mL | > 50 µg/mL | > 50 µg/mL | 94.9 µg/mL (≈ 181 µM) | > 57.1 µM | > 50 µg/mL | > 50 µg/mL | 57.1 µM | ≥ 50 µg/mL | ≥ 50 µg/mL | > 57.1 µM |  |  | 
5 | O=C(O)c1nc(N2CCN(C(=O)COc3ccc(Cl)cc3)CC2)c2cc(-c3ccc(F)cc3)sc2n1 [Example 357, 4-(4-(2-(4-chlorophenoxy)acetyl)piperazin-1-yl)-6-(4-fluorophenyl)thieno[2,3-d]pyrimidine-2-carboxylic acid] | > 50 µg/mL | > 50 µg/mL | > 50 µg/mL | 61.4 µg/mL (≈ 117 µM) | 157 µM | > 50 µg/mL | > 50 µg/mL | > 237 µM | ≥ 50 µg/mL | > 50 µg/mL | > 237 µM |  |  | 
6 | Nc1nc(N2CCN(C(=O)COc3ccc(Cl)cc3)CC2)c2cc(-c3ccc(F)cc3)sc2n1 [Example 326, 1-(4-(2-amino-6-(4-fluorophenyl)thieno[2,3-d]pyrimidin-4-yl)piperazin-1-yl)-2-(4-chlorophenoxy)ethanone] | 0.13 µg/mL (≈ 0.261 µM) | 0.17 µg/mL (≈ 0.341 µM) | 35.2 µg/mL (≈ 70.7 µM) | 102 µg/mL (≈ 205 µM) | > 27.7 µM | 0.13 µg/mL (≈ 0.261 µM) | 0.037 µg/mL (≈ 0.0743 µM) | 27.7 µM | 0.051 µg/mL (≈ 0.102 µM) | 0.023 µg/mL (≈ 0.0462 µM) | 4.84 µM |  |  | 
7 | COc1ccc(OCC(=O)N2CCN(c3ncnc4sc(CCc5ccc(F)cc5)nc34)CC2)cc1 [Example 302, 1-(4-(2-(4-fluorophenethyl)thiazolo[5,4-d]pyrimidin-7-yl)piperazin-1-yl)-2-(4-methoxyphenoxy)ethanone] | < 0.023 µg/mL | 0.085 µg/mL (≈ 0.167 µM) | > 50 µg/mL | 50 µg/mL (≈ 98.5 µM) |  | < 0.023 µg/mL | < 0.023 µg/mL |  | < 0.023 µg/mL | < 0.023 µg/mL |  |  |  | 
8 | O=C(COc1ccc(Cl)cc1)N1CCN(c2ncnc3sc(-c4ccc(F)cc4)cc23)CC1 [Example 312, 2-(4-chlorophenoxy)-1-(4-(6-(4-fluorophenyl)thieno[2,3-d]pyrimidin-4-yl)piperazin-1-yl)ethanone] | > 1.85 µg/mL | 2.05 µg/mL (≈ 4.24 µM) | > 50 µg/mL | 116 µg/mL (≈ 240 µM) |  | 3.77 µg/mL (≈ 7.81 µM) | 1.12 µg/mL (≈ 2.32 µM) |  | 1.28 µg/mL (≈ 2.65 µM) | 0.68 µg/mL (≈ 1.41 µM) |  |  |  | 
9 | CC(C)S(=O)(=O)n1c(N)nc2ccc(/C(=N/O)c3ccccc3)cc21 [Enviroxime] | 0.12 µg/mL (≈ 0.335 µM) | 1.03 µg/mL (≈ 2.87 µM) | 21.2 µg/mL (≈ 59.3 µM) | > 150 µg/mL |  | 0.13 µg/mL (≈ 0.363 µM) | 0.11 µg/mL (≈ 0.307 µM) |  | 0.041 µg/mL (≈ 0.114 µM) | 0.04 µg/mL (≈ 0.112 µM) |  |  |  | 
10 | CCCCCc1nc2c(N3CCN(C(=O)COc4ccc(Cl)cc4)CC3)nc(N)nc2o1 [Example 188, 5-amino-7-[4-(4-chlorophenoxyacetyl)piperazin-1-yl]-2-pentyloxazolo[5,4-d]pyrimidine] | 0.48 µg/mL (≈ 1.05 µM) | 0.32 µg/mL (≈ 0.697 µM) | > 50 µg/mL | 103 µg/mL (≈ 225 µM) |  | 0.38 µg/mL (≈ 0.828 µM) | 0.14 µg/mL (≈ 0.305 µM) |  | 0.36 µg/mL (≈ 0.784 µM) | 0.11 µg/mL (≈ 0.24 µM) |  |  |  | 
11 | COCCN1CCN(c2nc(N)nc3oc(-c4ccc(F)cc4)nc23)CC1 [Example 192, 5-amino-2-(4-fluorophenyl)-7-[4-(2-methoxyethyl)-piperazin-1-yl]-oxazolo[5,4-d]pyrimidine] | > 50 µg/mL | > 50 µg/mL | > 50 µg/mL | 100 µg/mL (≈ 269 µM) |  | > 50 µg/mL | > 50 µg/mL |  | > 50 µg/mL | ≥ 50 µg/mL |  |  |  | 
12 | Nc1nc(N2CCN(C(=O)COc3ccc(Cl)cc3)CC2)c2nc(C3CC3)oc2n1 [Example 185, 5-amino-2-cyclopropyl-7-[4-(4-chlorophenoxyacetyl)piperazin-1-yl]-oxazolo[5,4-d]pyrimidine] | > 50 µg/mL | > 50 µg/mL | > 50 µg/mL | 97.7 µg/mL (≈ 228 µM) |  | 0.4 µg/mL (≈ 0.933 µM) | 2.17 µg/mL (≈ 5.06 µM) |  | ≥ 50 µg/mL | 5.48 µg/mL (≈ 12.8 µM) |  |  |  | 
13 | CC(C)CN1CCN(c2nc(N)nc3oc(-c4ccc(F)cc4)nc23)CC1 [Example 190, 5-amino-2-(4-fluorophenyl)-7-(4-isobutylpiperazin-1-yl)-oxazolo[5,4-d]pyrimidine] | 1.13 µg/mL (≈ 3.05 µM) | 2.79 µg/mL (≈ 7.53 µM) | 32.3 µg/mL (≈ 87.2 µM) | 130 µg/mL (≈ 352 µM) |  | 1.15 µg/mL (≈ 3.1 µM) | 1.08 µg/mL (≈ 2.92 µM) |  | 1.17 µg/mL (≈ 3.16 µM) | 1.02 µg/mL (≈ 2.75 µM) |  |  |  | 
14 | CCCCc1nc(N2CCN(C(=O)COc3ccc(Cl)cc3)CC2)c2cc(-c3ccc(F)cc3)sc2n1 [Example 313, 1-(4-(2-butyl-6-(4-fluorophenyl)thieno[2,3-d]pyrimidin-4-yl)piperazin-1-yl)-2-(4-chlorophenoxy)ethanone] | > 50 µg/mL | > 50 µg/mL | > 50 µg/mL | > 150 µg/mL |  | > 50 µg/mL | > 50 µg/mL |  | ≥ 50 µg/mL | ≥ 50 µg/mL |  |  |  | 
15 | CC(=O)N1CCN(c2nc(N)nc3oc(-c4ccc(F)cc4)nc23)CC1 [Example 191, 5-amino-2-(4-fluorophenyl)-7-(4-acetylpiperazin-1-yl)-oxazolo[5,4-d]pyrimidine] | > 50 µg/mL | > 50 µg/mL | > 50 µg/mL | 112 µg/mL (≈ 313 µM) |  | 28.6 µg/mL (≈ 80.3 µM) | 27.5 µg/mL (≈ 77.1 µM) |  | ≥ 50 µg/mL | 21.6 µg/mL (≈ 60.6 µM) |  |  |  | 
16 | Nc1nc(N2CCN(C(=O)COc3ccc(Cl)cc3)CC2)c2nc(SCCc3ccccc3)[nH]c2n1 [Example 427, 1-(4-(2-amino-8-(phenethylthio)-9H-purin-6-yl)piperazin-1-yl)-2-(4-chlorophenoxy)ethanone] |  |  |  |  |  |  |  |  |  |  |  | 5.8 µM | 1.1 | 5.2 µM
17 | C[C@@]1(O)[C@H](O)[C@@H](CO)O[C@H]1n1ccc(N)nc1=O [2′-C-methylcytidine] | 11.4 µg/mL (≈ 44.4 µM) | 15.3 µg/mL (≈ 59.6 µM) | > 50 µg/mL | > 150 µg/mL |  | 3.74 µg/mL (≈ 14.5 µM) | 3.58 µg/mL (≈ 13.9 µM) |  | 7.27 µg/mL (≈ 28.3 µM) | 4.6 µg/mL (≈ 17.9 µM) |  |  |  | 
18 | Nc1nc(N2CCN(C(=O)COc3ccc(Cl)cc3)CC2)c2nc(Cc3ccc(Cl)cc3)sc2n1 [Example 122, 5-amino-7-[4-(4-chlorophenoxyacetyl)piperazin-1-yl]-2-(4-chlorophenylmethyl)thiazolo[5,4-d]pyrimidine] |  |  |  |  |  |  |  |  |  |  |  | 26.8 µM | 5.8 | 4.7 µM
19 | Nc1nc(N2CCN(C(=O)COc3ccc(Cl)cc3)CC2)c2cc(-c3ccccc3)sc2n1 [Example 329, 1-(4-(2-amino-6-phenylthieno[2,3-d]pyrimidin-4-yl)piperazin-1-yl)-2-(4-chlorophenoxy)ethanone] |  |  |  |  |  |  |  |  |  |  |  | > 44.4 µM | 3.8 | 11.8 µM
20 | Nc1nc(N2CCN(C(=O)c3ccc(Cl)cc3)CC2)c2nc(CCc3cccs3)sc2n1 [Example 156, 5-amino-2-(2-thiophen-2-ylethyl)-7-(4-(4-chloro-benzoyl)piperazin-1-yl)thiazolo[5,4-d]pyrimidine] |  |  |  |  |  |  |  |  |  |  |  | 30.7 µM | 1.5 | 20.7 µM
